Tests used:
[1] = target: T1, (H^+ +K^+)ATPase (Rattus norvegicus, UniProt P09626); test: Inhibition of dibutyryl cyclic AMP-stimulated 14C-aminopyrine uptake by rat gastric mucosal cells ((H^+ +K^+)ATPase inhibition); format: cell-based; conditions: 37° C., 2 hours
T1 construct: Rat gastric mucosal tissue is collected from 170-220 g male Sprague-Dawley rats; from tissue; host or cells: Dispersed gastric mucosal cells from male Sprague-Dawley rats (Pronase E digestion)
Text: The procedures for these tests and the results for some of the compounds of the invention are presented at the end of the following examples, which will serve to illustrate the present invention. The determination of the rate of gastric acid secretion cannot be measured quantitatively with isolated gastric glands or cells. However, the acid secretory response can be monitored semiquantitatively by measuring the uptake of a radiolabelled weak base, ^14 C-aminopyrine (^14 C-AP), which accumulates in the glands in proportion to the pH differences between the intraglandular acid compartments and the surrounding medium. The following assay uses this effect in order to measure the ability of the compounds of the invention to inhibit gastric acid secretion by blocking (H^+ +K^+)ATPase. Rat gastric mucosal tissue is collected from 170-220 g male Sprague-Dawley rats. […] The Pronase E is poured off and the tissues are rinsed in a small amount of DNAse solution (2.5 mg DNAse in 10 ml of Hanks Balanced Salt Solution (HBE) with addition of 1 mg/ml of BSA and 0.76 mg/ml of EGTA). 4 ml of stock DNAse solution is added to 76 ml of HBE and aerated before use. The pH of the solution is adjusted to 7.5 with 2M Tris Buffer. The comminuted tissue is passed through nylon mesh into DNAse solution and incubated at ambient temperature for 20 minutes. The cells obtained thereby are dispersed, filtered through nylon mesh and centrifuged at 1000 RPM's for 7 minutes. […] Immediately before use, 6.1 mg of L-cysteine is dissolved in 5 ml RPMI-BSA. The final incubation medium is (by volume) 80% RPMI-BSA, 10% glucose/PA/IMX solution and 10% L-cysteine solution. For the actual assay procedure, microfuge tubes are prepared as follows: Into each tube are placed (a) 100 μl of the stimulant dibutyryl cyclic AMP made up in H2 O or an equal volume of distilled H2 O; (b) 100 μl of drug made up in RPMSI-BSA or an equal volume of RPMI-BSA; (c) 750 μl of the cell suspension; and (d) 50 μl of ^14 C-aminopyrine solution. The tubes are shaken in a 37° C. water bath in a O2 /CO2 (95/5%) atmosphere at about 110 cycles/minute, and incubated for 2 hours. The tubes are then microfuged for 30 seconds, the pellet surface rinsed with 500 μl RPMI-BSA and the cells dispersed in 500 μl distilled H2 O. The cells are then transferred to mini-scintillation vials with 5.75 ml of Hydrofluor, vortexed and counted in a Packard liquid scintillation counter. The inhibition of ^14 C-AP uptake is quantified from the scintillation count results and the IC50 for test compounds is calculated. The results for some of the compounds of the invention and for the two known (H^+ +K^+)ATPase inhibitors, omeprazole and timoprazole, are given in Table I.

[2] = system: spontaneous gastric secretions; test: Pyloric-ligated rat assay (inhibition of gastric acid output); format: in vivo; conditions: male rats, intraduodenal, 4 hours after pylorus ligation
Protocol: The procedures for these tests and the results for some of the compounds of the invention are presented at the end of the following examples, which will serve to illustrate the present invention. […] Male Charles River SC/CD rats weighing 190-260 gm are fasted for 24 hours with access to tap water ad libitum until the test. Groups of 10 rats each are assigned to either control or drug treatment. Under […] anesthesia, a midline laparotomy is performed and a ligature is tightly secured around the pylorus. Either control vehicle (0.25% aqueous methylcellulose) or drug in control vehicle is administered intraduodenally, 1 ml/kg, immediately after ligating the pylorus. The abdominal incision is closed with wound clips and the rats (2 per cage) are allowed to recover from anesthesia. After four hours the rats are sacrificed by CO2 asphyxiation. Their stomachs are removed and the accumulated gastric contents are emptied into graduated tubes. The gastric samples are centrifuged for 10 minutes. Samples contaminated with food or fecal material are discarded. The volume of gastric juice is recorded and the acid concentration of 1.0 ml sample aliquots is measured by electrometric titration to pH 7.0 using 0.1N sodium hydroxide. Titratable acid output is calculated in microequivalents and the percent inhibition of acid output is calculated as follows: [formula] The test results for a compound of the invention and for the known (H^+ +K^+)ATPase inhibitors omeprazole and timoprazole, expressed as ED50 's, are as follows: […]

[3] = system: cold restraint/stress ulcerogenesis; test: Cold restraint/stress ulcerogenesis assay (cytoprotective effect); format: in vivo; conditions: Rattus norvegicus; male rats, oral, cold (4±1° C.) restraint; read-out: Inhibition, ED50 (cold restraint/stress ulcers)
Protocol: The procedures for these tests and the results for some of the compounds of the invention are presented at the end of the following examples, which will serve to illustrate the present invention. The ability of the compounds of the invention to exert a cytoprotective effect is examined in the cold restraint/stress ulcerogenesis assay. Male Charles River rats weighing between 120-160 gm are deprived of food for 18 hours with water ad libitum. The rats are divided into groups of ten and dosed by the oral route with test compound, 50 mg/kg, or vehicle control, 0.5% carboxymethylcellulose, in a volume of 5 ml/kg. Immediately after dosing, the animals are inserted into aluminum restraining tubes measuring 15/8 inches in diameter by 8 inches and placed in the cold (4±1° C.). […] At the end of the test period the animals are killed, the duodenum and esophagus ligated, and the stomach removed. The stomachs are inflated with water, opened along the lesser curvature, spread over the index finger, and the mucosa wiped off to expose the submucosa. The number of hemorrhage sites in the submucosa are counted by visual observation and recorded. Compounds are reported by determining (A) a percent inhibition which is calculated as follows: [formula] or (B) a mean ulcer number ±S.E.M. for each drug treated group and comparing it to that calculated for the control group. The test results for a compound of the invention and for the known (H^+ +K^+)ATPhase inhibitors omeprazole and timoprazole, expressed as ED50 's, are as follows: […]

[4] = target: T2, H2-receptor (Cavia porcellus, UniProt P47747); test: Histamine-induced positive chronotropic response in the spontaneously beating right atrium of the guinea pig heart (H2-receptor antagonism); conditions: at a level of 1×10^-6 M; 30 minutes after addition
T2 construct: from tissue; host or cells: Guinea pig right atrium, spontaneously beating
Protocol: The tissue is allowed to stabilize over 1 hour. Individual contractions are recorded with a force-displacement transducer through a strain gauge coupler. […] The test compound is added to the tissue bath at the desired final concentration. Thirty minutes after addition of the compound, a fresh histamine dose response curve is again obtained. Then the response to histamine in the presence of antagonist is compared to the histamine control response. This procedure is repeated, using fresh tissues, for each concentration of antagonist tested.

[5] = system: (H^+ +K^+)ATPase; conditions: Fellenius, Nature 220, 159-160 (1981); cited from earlier work
[6] = system: gastric secretions; conditions: cited from earlier work
[7] = system: isolated guinea pig gastric mucosa; conditions: dibutyryl cyclic AMP stimulation after pretreatment with theophylline; cited from earlier work

T1 sequence (P09626 whole entry): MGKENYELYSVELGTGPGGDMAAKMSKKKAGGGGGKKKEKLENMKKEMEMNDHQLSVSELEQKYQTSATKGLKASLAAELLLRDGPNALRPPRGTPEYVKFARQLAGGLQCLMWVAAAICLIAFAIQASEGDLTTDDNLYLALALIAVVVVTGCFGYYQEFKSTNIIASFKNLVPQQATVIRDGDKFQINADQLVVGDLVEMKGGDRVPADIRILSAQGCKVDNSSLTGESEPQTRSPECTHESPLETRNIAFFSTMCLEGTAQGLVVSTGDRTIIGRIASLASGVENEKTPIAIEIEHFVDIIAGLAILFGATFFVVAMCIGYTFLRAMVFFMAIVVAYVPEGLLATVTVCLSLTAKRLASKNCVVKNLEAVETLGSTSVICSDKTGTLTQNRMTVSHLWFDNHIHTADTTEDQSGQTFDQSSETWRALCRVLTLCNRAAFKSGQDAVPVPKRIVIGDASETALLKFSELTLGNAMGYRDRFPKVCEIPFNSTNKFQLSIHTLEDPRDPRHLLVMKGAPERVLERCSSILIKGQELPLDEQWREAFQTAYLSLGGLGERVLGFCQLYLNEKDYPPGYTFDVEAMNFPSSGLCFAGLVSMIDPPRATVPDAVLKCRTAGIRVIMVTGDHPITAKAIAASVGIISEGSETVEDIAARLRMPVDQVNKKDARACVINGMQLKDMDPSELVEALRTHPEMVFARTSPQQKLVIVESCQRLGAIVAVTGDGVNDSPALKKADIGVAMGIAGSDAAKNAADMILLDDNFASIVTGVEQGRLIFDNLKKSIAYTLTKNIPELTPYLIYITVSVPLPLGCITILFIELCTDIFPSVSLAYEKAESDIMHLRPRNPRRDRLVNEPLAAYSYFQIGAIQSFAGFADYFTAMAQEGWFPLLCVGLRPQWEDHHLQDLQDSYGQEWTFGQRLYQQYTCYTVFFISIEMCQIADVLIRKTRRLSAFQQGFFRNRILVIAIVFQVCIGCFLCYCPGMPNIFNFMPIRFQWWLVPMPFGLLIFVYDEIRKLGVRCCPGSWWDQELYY
T1 sequence (P18598 whole entry partner): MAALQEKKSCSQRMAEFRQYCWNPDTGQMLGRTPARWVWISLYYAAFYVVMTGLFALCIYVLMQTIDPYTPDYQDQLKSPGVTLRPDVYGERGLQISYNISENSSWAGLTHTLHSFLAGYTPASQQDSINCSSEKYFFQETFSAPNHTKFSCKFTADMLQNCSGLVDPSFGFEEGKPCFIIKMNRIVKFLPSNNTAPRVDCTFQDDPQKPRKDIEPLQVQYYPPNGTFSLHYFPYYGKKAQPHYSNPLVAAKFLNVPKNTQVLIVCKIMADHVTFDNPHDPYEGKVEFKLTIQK
T2 sequence (P47747 whole entry): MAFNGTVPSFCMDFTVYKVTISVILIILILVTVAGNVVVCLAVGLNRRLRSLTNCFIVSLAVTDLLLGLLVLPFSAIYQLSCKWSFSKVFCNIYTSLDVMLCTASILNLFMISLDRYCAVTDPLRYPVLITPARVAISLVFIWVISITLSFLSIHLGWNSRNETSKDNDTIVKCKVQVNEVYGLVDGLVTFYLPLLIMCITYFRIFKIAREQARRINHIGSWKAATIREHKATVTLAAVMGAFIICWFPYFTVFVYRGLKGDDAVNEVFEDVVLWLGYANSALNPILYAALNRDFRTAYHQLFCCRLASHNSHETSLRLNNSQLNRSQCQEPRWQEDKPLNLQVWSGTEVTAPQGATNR

SMILES | IC50 [1] | ED50 [2] | ED50 [3] | other results
O=S1(=O)N=C(N(CCCOc2cccc(CN3CCCCC3)c2)Cc2ccccc2)c2cscc21 [Example 1, N-(Phenylmethyl)-N-[3-[3-(1-piperidinylmethyl)phenoxy]propyl]thieno[3,4-d]isothiazol-3-amine 1,1-dioxide, ethanedioate (1:1)] | 400 nM | 8 mg/kg | 6 mg/kg | H2-receptor antagonist activity (guinea pig right atrium) [4]: inactive
O=S1(=O)N=C(N(CCCOc2cccc(CN3CCCCC3)c2)Cc2ccccc2)c2ccccc21 [Example 2, N-(Phenylmethyl)-N-[3-[3-(1-piperidinylmethyl)phenoxy]propyl]-1,2-benzoisothiazol-3-amine 1,1-dioxide, ethanedioate] | 100 nM | – | – | –
CN/C(=N/CCSCc1nc[nH]c1C)NC#N [cimetidine] | – | – | – | inhibition of proton transport by inhibition of (H^+ +K^+)ATPase [5]: devoid of this activity; inhibition of gastric secretions [6]: inhibit only those gastric secretions which were agonized by histamine

The remaining compounds from weak to strong by IC50 [1], led by results:

IC50 [1] | SMILES | ED50 [2] | ED50 [3] | other results
10000 nM | Nc1c(N(CCCOc2cccc(CN3CCCCC3)c2)Cc2ccc3c(c2)OCO3)c(=O)c1=O [Example 4] | – | – | –
5000 nM | O=S1(=O)N=C(N(CCCOc2cccc(CN3CCCCC3)c2)Cc2ccc3c(c2)OCO3)c2cscc21 [Example 3, N-(1,3-benzodioxol-5-ylmethyl)-N-[3-[3-(1-piperidinylmethyl)phenoxy]propyl]thieno[3,4-d]isothiazol-3-amine 1,1-dioxide, ethanedioate (1:1)] | – | – | –
1000 nM | [O-][S+](Cc1ccccn1)c1nc2ccccc2[nH]1 (centres unmarked) [timoprazole] | 4 mg/kg | 8 mg/kg | –
10 nM | COc1ccc2[nH]c([S+]([O-])Cc3ncc(C)c(OC)c3C)nc2c1 (centres unmarked) [omeprazole] | 6 mg/kg | 12 mg/kg | inhibition of stimulated secretion in isolated guinea pig gastric mucosa [7]: such stimulated secretion can be inhibited by omeprazole; inhibition of proton transport by inhibition of (H^+ +K^+)ATPase [5]: only omeprazole inhibited proton transport by the inhibition of (H^+ +K^+)ATPase

Source: patent US4595757A, “N-alkylated benzo- and hetero-fused antisecretory agents” (American Home Products Corporation, priority 1984, dated 1986)
